Source: patent US7632843B2, “Treatment of psychostimulant addiction” (priority 2002, dated 2009)
Where two headings read alike, the source gives them in different places.

Experiments:
mice [1] = test: Inhibition of increased locomotor activity produced by cocaine injection; type: in vivo
Method: In the experiments in eight mice, intraperitoneal injection of LEK-8829 (in the form of bimaleate salt) inhibited the increased locomotor activity produced by intraperitoneal cocaine injection of 20 mg/kg.

mice [2] = test: Inhibition of spontaneous locomotor activity; type: in vivo; settings: Mus musculus, ip, LEK-8829 bimaleate i.p.
rats [3] = test: Drug discrimination study (cocaine 10 mg/kg) in rats; type: in vivo
Excerpt: (§1) According to the data from literature, it is well known that rodents and primates are capable to discriminate most psychostimulants abused by humans. Therefore, a model of the specific drug discrimination in experimental animals is a suitable method for the assessment of new active substances in case of the abuse of psychostimulants.

Rhesus monkeys [4] = test: Drug discrimination study (cocaine 0.4 mg/kg vs physiological saline) in Rhesus monkeys; type: in vivo; settings: four Rhesus monkeys; doses 0.032 to 0.32 mg/kg; trained on cocaine 0.4 mg/kg vs saline
Excerpt: as §1

rats [5] = test: Cocaine self-administration model in rats, saccharin as comparative stimulant; type: in vivo; settings: for ED50: Rattus norvegicus, rats
Method: The action of the active substance LEK-8829 (in the form of bimaleate salt) at doses ranging from 0.25 to 2.5 mg/kg on sensations of pleasure induced by cocaine self-administration was assessed as the effect on the rate of cocaine self-administration in the experiments in five rats. For determination of the specificity of the effect on cocaine, a solution of saccharin was used as a comparative stimulant. […] In the range of medium doses, LEK-8829 caused an increase in overall input of cocaine self-administration in three animals.

Rhesus monkeys [6] = test: Cocaine self-administration versus food intake in Rhesus monkeys; type: in vivo
Method: The effect of LEK-8829 (in the form of bimaleate salt) at doses of 0.032 to 0.32 mg/kg intramuscularly on cocaine self-administration in comparison with the effect on food intake (specificity of the effect on feelings of pleasure induced by cocaine, in comparison with non-specific sedative effect) was also tested in four Rhesus monkeys.

male Wistar rats = test: Craving model: within session extinction and reinstatement paradigm in rats self-administering cocaine; type: in vivo, Rattus norvegicus
Method: The study was performed in male Wistar rats (Rattus norvegicus) (the number is given above the columns in the figures) each weighing 180 to 210 g at the beginning of the experiment. The animals used in this experiment were maintained on a 12-hour dark-light cycle under controlled conditions at temperature 22 to 24° C., individually housed in standard cages with free excess to food and water.
In the tests the following active substances were used: • Cocaine hydrochloride • Bromocriptine mesylate • LEK-8829 (9,10-didehydro-N-methyl-N-(2-propynyl)-6-methyl-8β-aminometylergoline bimaleate) Operant Cage for Self-Injecting
The rats were trained and tested in standard operant test chambers (Coulbourn Instruments, Allentown, Pa., USA). Test chambers were built in a modular form and placed in sound-attenuated cubicles. Each was equipped with a ventilating fan that also served as sound source to mask external sound. Chambers were equipped with bulbs emitting white lights. Each chamber contained two nose-poke operanda mounted in 2 cm from the floor and 10 cm apart on the same wall. […] The cocaine solution was administered via the catheter. The latter connected the rat to a syringe ([…] (RAZEL, model A, 10 rpm), installed outside the cage. Time schedule of the experiments and data acquisition were controlled by a computer operated by a software package (Graphic State Notation 2 2.002-00; Coulbourn Instruments, Allentown, Pa., USA).
Each rat was anesthetized with the anaesthetic mixture (ketamine 60 mg/kg and xylazine 8 mg/kg) and implanted with an indwelling jugular catheter. […]
The rats were trained in self-injection of cocaine in daily, 2-hour self-administration sessions during their light cycle, every day except on Saturdays and Sundays. […] Each activation of the active opening was followed by a 30-second period of inactivation (time-out period when the light in the cage was switched off and activation of the active opening was only recorded but without any consequences). […]

D2 receptors = settings: previous studies (Zivin et al 1996, 1998; Sprah et al 1999); cited from earlier work
D1 receptors = D1 receptors (Rattus norvegicus, UniProt P18901); settings: previous studies (Zivin et al 1996, 1998; Sprah et al 1999); cited from earlier work
D1 receptors, sequence (P18901 whole entry): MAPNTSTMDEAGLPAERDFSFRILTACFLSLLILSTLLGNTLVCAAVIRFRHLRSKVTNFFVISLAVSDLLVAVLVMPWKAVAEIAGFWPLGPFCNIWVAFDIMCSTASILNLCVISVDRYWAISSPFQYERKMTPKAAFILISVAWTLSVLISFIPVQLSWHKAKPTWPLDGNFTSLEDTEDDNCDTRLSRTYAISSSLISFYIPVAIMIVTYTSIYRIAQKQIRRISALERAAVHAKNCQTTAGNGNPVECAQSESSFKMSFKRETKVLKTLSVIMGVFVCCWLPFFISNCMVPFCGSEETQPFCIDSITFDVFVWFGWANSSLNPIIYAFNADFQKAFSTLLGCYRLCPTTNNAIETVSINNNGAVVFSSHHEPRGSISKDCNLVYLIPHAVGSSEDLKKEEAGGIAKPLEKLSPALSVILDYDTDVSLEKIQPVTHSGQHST

SMILES | ID50, inhibition of increased locomotor activity produced by cocaine (mice [1]; eight mice, LEK-8829 bimaleate i.p., cocaine 20 mg/kg i.p.) [mg/kg] | ratio of ED50/ID50 (spontaneous vs cocaine-increased locomotor activity) (mice [1]; mice, selectivity of the effect against cocaine) | ED50 (mice [2]) [mg/kg] | partial antagonism of cocaine effect (rats [3]; rats, dose 2.5 mg/kg) [%] | replacement of the discriminative stimulating effect of cocaine (rats [3]; six rats, doses 0.25 to 2.5 mg/kg) | inhibition of the discriminative stimulating effect of cocaine (rats [3]; six rats, doses 0.5 to 5 mg/kg) | discriminative stimulating effect of plain LEK-8829 in the sense of cocaine effect (Rhesus monkeys [4]) | ED50 (rats [5]; non-specific effect, read-out: ED50, blocking effect on the input of saccharin) [mg/kg] | ED50 (rats [5]; read-out: ED50, blocking effect on cocaine self-administration) [mg/kg] | effect on the dose/response curve of cocaine self-administration (rats [5]; five rats, dose range printed 0.2.5 to 1.55 mg/kg, four of five animals) | effect on the curve dose/input of cocaine at the largest dose (Rhesus monkeys [6]; Rhesus monkeys, 0.32 mg/kg i.m.) | effect on the curve dose/input of cocaine at small and medium doses (Rhesus monkeys [6]; Rhesus monkeys, 0.032 and 0.1 mg/kg i.m.) | effect on food intake (Rhesus monkeys [6]; Rhesus monkeys, 0.032 to 0.32 mg/kg i.m.) | effect on cocaine self-administration (Rhesus monkeys [6]; four Rhesus monkeys, 0.032 to 0.32 mg/kg intramuscularly, dose-dependent) | effect on cocaine-induced self-injecting (activations of the active opening, last half-hour) (male Wistar rats; LEK-8829 i.v. 0.25 and 0.5 mg/kg, 30 minutes before cocaine 2 mg/kg i.v., p<0.05 vs SAL+COC) | effect on relapse triggered by cocaine (activations of the active opening, last hour) (male Wistar rats; i.p. 0.5 to 5 mg/kg, 30 minutes before cocaine 2 mg/kg i.v., p<0.05 vs SAL+COC) | effect on D2 receptors (D2 receptors) | effect on D1 receptors (D1 receptors) | appetitive behaviour induced by the substance itself (male Wistar rats; bromocriptine 2 mg/kg i.v. before the cocaine injection)
C#CCN(C)C[C@@H]1C=C2c3cccc4[nH]cc(c34)C[C@H]2N(C)C1 [LEK-8829, 9,10-didehydro-N-methyl-N-(2-propynyl)-6-methyl-8β-aminomethylergoline] | 1.2 | 1.8 | 2.1 | 56 | did not replace the discriminative stimulating effect of cocaine | partly inhibited the discriminative stimulating effect of cocaine | did not recognize the discriminative stimulating effect | 2.16 | 0.17 | produced a right shift of the curve in the ratio dose/response to cocaine | blocked the effect of cocaine along the entire (ascending and descending) part of the curve | decreased the ascending part of the curve | only a minor inhibiting effect on food intake | inhibited cocaine self-administration | statistically significantly reduced cocaine-induced self-injecting | statistically significantly reduced a relapse triggered by cocaine | antagonistic effects on D2 receptors | agonist effects on D1 receptors | 
CC(C)C[C@H]1C(=O)N2CCC[C@H]2[C@]2(O)O[C@](NC(=O)[C@@H]3C=C4c5cccc6[nH]c(Br)c(c56)C[C@H]4N(C)C3)(C(C)C)C(=O)N12 [Bromocriptine, reference compound] |  |  |  |  |  |  |  |  |  |  |  |  |  |  |  |  |  |  | induced the appetitive behaviour
